Source: US6452050B1, “Synthesis and use of α-ketoamide derivatives and arrays” (ArQule, Inc., priority 1997, dated 2002)

Target: T1, Cathepsin B (EC 3.4.22.1, from human liver) (Homo sapiens, UniProt P07858)
T1 construct: Cathepsin B (EC 3.4.22.1, from human liver) was purchased from Sigma Chemical Company; purchased Sigma Chemical Company (St. Louis, Mo.); host or cells: human liver
Experiment: High-throughput fluorometric cathepsin B assay (Z-F-R-AMC substrate)
Assay type: biochemical
Details: cruzain versus cathepsin B IC50
Method: A fluorometric high throughput cathepsin B assay for detecting inhibitory activity was developed in 96-well microtiter plate format. Benzyloxy-Phe-Arg-AMC (Z-F-R-AMC; Molecular Probes, Inc., Eugene, Oreg.) was the substrate used in the assay (Km=150 μM). Cathepsin B (EC 3.4.22.1, from human liver) was purchased from Sigma Chemical Company (St. Louis, Mo.) in a stock solution containing 25 μg of the protein in 25 μl buffer (i.e., 20 mM sodium acetate, pH 5.0, and 1 mM EDTA).
The bioassay of the compounds was performed on a Sagian/Beckman Integrated robotic system (Beckman, Fullerton, Calif.). Inhibition of enzyme activity was measured via fluorescent detection. Fluorescence readings were taken at an excitation wavelength of […] (λmax=350 nm) and an emission wavelength of 430 nm (λmax=430 nm) on a BMG FluoStar (BMG, Durham, N.C.). […]
The reaction was initiated by the addition of the cathepsin B (0.46 ng/ml) in the assay buffer containing dithiothreitol (giving a final concentration of 1.5 mM). […] The activity was obtained by observing the end point absorbance reading after quenching. The percentage of inhibition was calculated by dividing the absorbance measured in the presence of inhibitor plus enzyme (inhibited signal) by the absorbance measured in the presence of enzyme alone (full signal) minus the absorbance obtained in the absence of both inhibitors and the enzyme (background). […]

## O=C(Nc1ccc(CNC(=O)C(=O)c2ccc(-c3ccccc3)cc2)cc1)Nc1ccc(-c2ccccc2)cc1 [Compound 4]
  selectivity over cathepsin B: greater than 20 fold
